In patent EP0677522A1, “8-METHOXYQUINOLONECARBOXYLIC ACID DERIVATIVE” (priority 1992, dated 1994):
Values after ≈ are worked out from the molar mass of the structure shown.

Legend:
Test in all cases: In vitro antibacterial activity (MIC), Japan Society of Chemotherapy Standard
Type in all cases: cell-based
P. mirabilis IFO 3849 = settings: Proteus mirabilis, IFO3849; inoculated cells 10⁶ cells/ml
Experimental: (§1) The in vitro antibacterial activity (minimum inhibitory concentration, MIC, µg/ml) of the test compounds was determined according to Japan Society of Chemotherapy Standard [Chemotherapy, vol. 29, pp 76-79 (1981)].
(§2) Inoculated cells were 10⁶ cells/ml and the strain with * was incubated in a medium supplemented with 10% horse blood. The mark "1)" means quinolone resistant MRSA and "2)" means quinolone resistant bacteria.

[1] = system: Staphylococcus aureus FDA 209P; settings: FDA209P, inoculated cells 10⁶ cells/ml
Experimental: as §1, §2

[2] = system: Proteus vulgaris IFO 3988; settings: IFO3988, inoculated cells 10⁶ cells/ml
Experimental: as §1, §2

[3] = system: Serratia marcescens IFO 12648; settings: IFO12648, inoculated cells 10⁶ cells/ml
Experimental: as §1, §2

[4] = system: Enterobacter cloacae IFO 12937; settings: IFO12937, inoculated cells 10⁶ cells/ml
Experimental: as §1, §2

[5] = system: Escherichia coli NIHJ JC-2; settings: NIHJJC2, inoculated cells 10⁶ cells/ml
Experimental: as §1, §2

[6] = system: Enterococcus faecalis LS-101; settings: LS101, inoculated cells 10⁶ cells/ml
Experimental: as §1, §2

K.pneumoniae DT-S = settings: Klebsiella pneumoniae; inoculated cells 10⁶ cells/ml
Experimental: as §1, §2

[7] = system: S. epidermidis ATCC 12228; settings: Staphylococcus epidermidis, ATCC12228; inoculated cells 10⁶ cells/ml
Experimental: as §1, §2

Shigella flexneri EW-10 = settings: EW10, inoculated cells 10⁶ cells/ml
Experimental: as §1, §2

P.aeruginosa U-31 = settings: Pseudomonas aeruginosa, U31; inoculated cells 10⁶ cells/ml
Experimental: as §1, §2

[8] = system: Citrobacter freundii IFO 12681; settings: IFO12681, inoculated cells 10⁶ cells/ml
Experimental: as §1, §2

M.catarrhalis ATCC 25238 = settings: Moraxella catarrhalis, ATCC25238; inoculated cells 10⁶ cells/ml; medium supplemented with 10% horse blood
Experimental: as §1, §2

L.monocytogenes VTU-206 = settings: Listeria monocytogenes, VTU206; inoculated cells 10⁶ cells/ml; medium supplemented with 10% horse blood
Experimental: as §1, §2

[9] = system: A.calcoaceticus IFO 13006; settings: Acinetobacter calcoaceticus, IFO13006; inoculated cells 10⁶ cells/ml
Experimental: as §1, §2

E. avium EAY-30 = settings: Enterococcus avium, EAY30, inoculated cells 10⁶ cells/ml
Experimental: as §1, §2

[10] = system: Streptococcus pyogenes C-203; settings: C203, inoculated cells 10⁶ cells/ml, medium supplemented with 10% horse blood
Experimental: as §1, §2

S. pneumoniae Type-III = settings: Streptococcus pneumoniae; inoculated cells 10⁶ cells/ml; medium supplemented with 10% horse blood
Experimental: as §1, §2

E. faecium EFMY-28 = settings: Enterococcus faecium, EFMY28; inoculated cells 10⁶ cells/ml
Experimental: as §1, §2

S. aureus No.88 = settings: Staphylococcus aureus; quinolone resistant MRSA; inoculated cells 10⁶ cells/ml
Experimental: as §1, §2

| SMILES | MIC (P. mirabilis IFO 3849) [µg/mL] | MIC [1] [µg/mL] | MIC [2] [µg/mL] | MIC [3] [µg/mL] | MIC [4] [µg/mL] | MIC [5] [µg/mL] | MIC [6] [µg/mL] | MIC (K.pneumoniae DT-S) [µg/mL] | MIC [7] [µg/mL] | MIC (Shigella flexneri EW-10) [µg/mL] | MIC (P.aeruginosa U-31) [µg/mL] | MIC [8] [µg/mL] | MIC (M.catarrhalis ATCC 25238) [µg/mL] | MIC (L.monocytogenes VTU-206) [µg/mL] | MIC [9] [µg/mL] | MIC (E. avium EAY-30) [µg/mL] | MIC [10] [µg/mL] | MIC (S. pneumoniae Type-III) [µg/mL] | MIC (E. faecium EFMY-28) [µg/mL] | MIC (S. aureus No.88) [µg/mL] |
| --- | --- | --- | --- | --- | --- | --- | --- | --- | --- | --- | --- | --- | --- | --- | --- | --- | --- | --- | --- | --- |
| COc1c(N2CCC(N)(CN)CC2)c(F)cc2c(=O)c(C(=O)O)cn(C3CC3)c12 [Comp. Ex. 1, 7-(4-amino-4-aminomethylpiperidin-1-yl)-1-cyclopropyl-6-fluoro-1,4-dihydro-8-methoxy-4-oxo-3-quinolinecarboxylic acid, reference compound] | 25 (≈ 61.8 µM) | 0.1 (≈ 0.247 µM) | 25 (≈ 61.8 µM) | 6.25 (≈ 15.5 µM) | 12.5 (≈ 30.9 µM) | 1.56 (≈ 3.86 µM) | 1.56 (≈ 3.86 µM) | 6.25 (≈ 15.5 µM) | 0.78 (≈ 1.93 µM) | 0.39 (≈ 0.964 µM) | 12.5 (≈ 30.9 µM) |  |  |  |  |  |  |  |  |  |
| COc1c(N2CCC(N)(CF)C2)c(F)cc2c(=O)c(C(=O)O)cn(C3CC3)c12 (stereo not shown) [Example 1, 7-(3-amino-3-fluoromethylpyrrolidin-1-yl)-1-cyclopropyl-6-fluoro-1,4-dihydro-8-methoxy-4-oxo-3-quinolinecarboxylic acid] | 0.39 (≈ 0.991 µM) | ≤ 0.006 | 0.2 (≈ 0.508 µM) | 0.2 (≈ 0.508 µM) | 0.2 (≈ 0.508 µM) | 0.025 (≈ 0.0636 µM) | 0.012 (≈ 0.0305 µM) | 0.025 (≈ 0.0636 µM) | 0.012 (≈ 0.0305 µM) | ≤ 0.006 | 0.39 (≈ 0.991 µM) | 0.05 (≈ 0.127 µM) | 0.012 (≈ 0.0305 µM) | 0.1 (≈ 0.254 µM) | 0.05 (≈ 0.127 µM) | 0.1 (≈ 0.254 µM) | 0.05 (≈ 0.127 µM) | 0.012 (≈ 0.0305 µM) | 0.2 (≈ 0.508 µM) | 0.39 (≈ 0.991 µM) |
